Measured values published in the NIST ThermoML archive (doi:10.1016/j.jct.2016.04.020).

Assay: mn = molality of the nth substance listed, in mol/kg
Conditions: 101.3 kPa, Liquid, Vibrating tube method

O=C([O-])CC(O)(CC(=O)[O-])C(=O)[O-].[NH4+].[NH4+].[NH4+] [ammonium 2-hydroxypropane-1,2,3-tricarboxylate] + O
mass density [kg/m3]
Conditions | m1 = 0.0125 | m1 = 0.025 | m1 = 0.04999 | m1 = 0.09998 | m1 = 0.1499 | m1 = 0.2
283.15 K | 1001.9 | 1003.43 | 1006.27 | 1011.68 | 1017.03 | 1022.12
287.15 K | 1001.25 | 1002.76 | 1005.56 | 1010.91 | 1016.2 | 1021.24
293.15 K | 1000.32 | 1001.83 | 1004.59 | 1009.9 | 1015.14 | 1020.13
298.15 K | 999.12 | 1000.6 | 1003.33 | 1008.6 | 1013.82 | 1018.77
303.15 K | 997.71 | 999.18 | 1001.88 | 1007.13 | 1012.32 | 1017.26
308.15 K | 996.07 | 997.53 | 1000.22 | 1005.44 | 1010.62 | 1015.55
313.15 K | 994.23 | 995.69 | 998.32 | 1003.56 | 1008.75 | 1013.67
318.15 K | 992.21 | 993.66 | 996.29 | 1001.54 | 1006.7 | 1011.63
323.15 K | 990.03 | 991.47 | 994.08 | 999.34 | 1004.49 | 1009.46
328.15 K | 987.68 | 989.12 | 991.7 | 996.99 | 1002.14 | 1007.11
333.15 K | 985.17 | 986.62 | 989.15 | 994.46 | 999.65 | 1004.59
